Results: patent publication US10351565B2, “Therapeutic compounds for pain and synthesis thereof” (priority 2015, dated 2019)
“And” between values parts separate entries of the source, which are not always exact repeats. Identical values can stand only once.

Key:
[1] = test system: neuropathic pain in mice; experiment: Taxol mouse model of neuropathic pain, repeated daily administration; type: in vivo
Text: (§1) Table 7 summarizes the activity of Formula 1 in mice models of neuropathic pain following repeated daily administration using different routes of administration.

[2] = test system: neuropathic pain in mice; experiment: CCI mouse model of neuropathic pain, repeated daily administration; type: in vivo; conditions: for Dose of maximum activity: doses tested 150 mg/kg
Text: as §1

[3] = PO, 30 mg/kg, repeated daily administration
[4] = SC, doses tested 1, 3, 10 mg/kg, repeated daily administration
[5] = SC, 150 mg/kg, repeated daily administration

SMILES	Duration of activity at maximum effect [1, 3] [H]	Level of activity (% of maximum effect- baseline) [1, 3] [%]	Peak of activity (T) [1, 3]	Dose of maximum activity ([1]; PO, doses tested 30 mg/kg) [mg/kg]	Dose of maximum activity ([1]; SC, doses tested 1, 3, 10 mg/kg) [mg/kg]	Duration of activity at maximum effect [1, 4] [h]	Level of activity (% of maximum effect- baseline) [1, 4] [%]	Dose of maximum activity ([2]; IP) [mg/kg]	Duration of activity at maximum effect [2, 5]	Level of activity (% of maximum effect- baseline) [2, 5]	Peak of activity (T) [2, 5]	Dose of maximum activity ([2]; SC) [mg/kg]	Dose of maximum activity ([1]; PO, doses tested 150 mg/kg) [mg/kg]	Dose of maximum activity ([1]; SC, doses tested 150 mg/kg) [mg/kg]
COc1ccc2cc(CN3[C@@H]4C[C@@H]5C[C@H]3[C@H](OC(=O)C(C)(C)C)C4N(C(=O)CC(F)(F)F)C5)ccc2c1 (stereo partly drawn) [Formula 1, (2S,3S,6R,7aR)-1-((6-methoxynaphthalen-2-yl)methyl)-4-(3,3,3-trifluoropropanoyl)octahydro-1H-2,6-methanopyrrolo[3,2-b]pyridin-3-yl pivalate]	24	100	2-24 H	<30	1	24	100							
NCC1(CC(=O)O)CCCCC1 [Gabapentin]								150	4-6 H	>100% and 64%	2-3 H	150	150	150
